Experimental data from ChEMBL document CHEMBL1136124, “Copper complex of hydroxyl-substituted triazamacrocyclic ligand and its antitumor activity” (2003).

How the values were obtained:
HXO-RB44 cell line [1] = assay: In vitro antitumor activity of concentration of 10-5 mol.L-1 against HXO-RB44 cell line using MTT assay; type: functional, Homo sapiens; conditions: for inhibition: Homo sapiens
Bel-7402 [2] = assay: In vitro antitumor activity of concentration of 10-3 mol.L-1 against BEL-7402 cell line using MTT assay; type: functional, Homo sapiens; conditions: for inhibition: Homo sapiens
Bel-7402 [3] = assay: In vitro antitumor activity of compound at a concentration 10-4 mol.L-1 against BEL-7402 cell line using MTT assay; type: functional, Homo sapiens; conditions: for inhibition: Homo sapiens
HXO-RB44 cell line [4] = assay: In vitro antitumor activity of concentration of 10-4 mol.L-1 against HXO-RB44 cell line using MTT assay; type: functional, Homo sapiens; conditions: for inhibition: Homo sapiens
HXO-RB44 cell line [5] = assay: In vitro antitumor activity of concentration of 10-6 mol.L-1 against HXO-RB44 cell line using MTT assay; type: functional, Homo sapiens; conditions: for inhibition: Homo sapiens
Bel-7402 [6] = assay: In vitro antitumor activity of compound at a […] mol.L-1 against BEL-7402 cell line using MTT assay; type: functional, cell-based; conditions: Homo sapiens

OC1CNCCNCCNC1
Inhibition (HXO-RB44 cell line [1]): 3%
Inhibition (Bel-7402 [2]): 34%
Inhibition (Bel-7402 [3]): 16%
Inhibition (HXO-RB44 cell line [4]): 3%
Inhibition (HXO-RB44 cell line [5]): 1%

COPPER
inhibition (HXO-RB44 cell line [1]): 3%
inhibition (Bel-7402 [2]): 81%
inhibition (Bel-7402 [3]): 3%
inhibition (HXO-RB44 cell line [4]): 5%
inhibition (HXO-RB44 cell line [5]): 0%
inhibition (Bel-7402 [6]): 2%

[1,4,7]Triazecan-9-ol copper complex
inhibition (HXO-RB44 cell line [1]): 13%
inhibition (Bel-7402 [2]): 97%
inhibition (Bel-7402 [3]): 47%
inhibition (HXO-RB44 cell line [4]): 64%
inhibition (HXO-RB44 cell line [5]): 2%
inhibition (Bel-7402 [6]): 11%
